“Also recorded” adds a separate entry of the source.

For test [1], the system named is human primary erythroid cells. The experiment in a line: qRT-PCR of β-globin mRNAs after JQ1 treatment. The test is classed as cell-based. To be noted: JQ1 vs DMSO. The protocol:
(§1) Cells and Cell Culture. Human […] K562 cells were obtained from ATCC and cultured in IMDM medium containing 10% FBS and 1% penicillin/streptomycin. pEF1α-FB-dCas9 and pEF1α-BirA-V5 vectors were co-transfected into K562 cells by nucleofection using the ECM 830 Square Wave Electroporation System (Harvard Apparatus, Holliston, Mass.). Cells were plated in 96-well plates and treated with 1 μg/ml of puromycin (Sigma) and 600 μg/ml of G418 (Sigma) 48-72 hour post-transfection. Single-cell-derived clones were isolated and examined by Western blot analysis to screen for FB-dCas9 and BirA-expressing stable clones. Human primary adult erythroid progenitor cells were generated ex vivo from CD34+ HSPCs as previously described (Huang et al., 2016). Primary HSPCs from both sexes were used in this study. […] Mouse male embryonic stem cells (ESCs) were cultured on primary embryonic fibroblasts and differentiated to embryoid bodies (EBs) by LIF withdrawal for 8 days. All cultures were incubated at 37° C. in 5% CO2. All cell lines were tested for mycoplasma contamination. […]
RNA-seq and qRT-PCR Analysis. […] Sequencing reads from all RNA-seq experiments were aligned to human (hg19) reference genome by TopHat v2.0.13 (Trapnell et al., 2009) with the parameters: --solexaquals --no-novel-juncs. Quantitative RT-PCR (qRT-PCR) was performed using the iQ SYBR Green Supermix (Bio-Rad).
(In general: Real-time PCR tracks product formation cycle by cycle.)

For test [2], the system named is human erythroid cells. The experiment in a line: Erythroid maturation by CD71/CD235a flow cytometry and cytospin after JQ1. The format is cell-based. To be noted: JQ1 vs DMSO, cell surface markers CD71 and CD235a, cytospin. How it is done:
as §1, with “CO2.” for “CO2. All cell lines were tested for mycoplasma contamination.”
Flow Cytometry. Human erythroid cell differentiation was analyzed by flow cytometry using FACSCanto. […] The cells were analyzed for expression of cell surface receptors with antibodies specific for CD71 and CD235a conjugated to phycoerythrin (PE) and fluorescein isothiocyanate (FITC), respectively. Data were analyzed using FlowJo software (Ashland, Oreg.). […]
For orientation: Flow cytometry measures light scatter and fluorescence of single cells or particles in a stream.

As for `Cc1sc2c(c1C)C(c1ccc(Cl)cc1)=N[C@@H](CC(=O)OC(C)(C)C)c1nnc(C)n1-2` [JQ1], the “β-globin mRNAs” value in test [1] was “significant downregulation; also recorded: significantly decreased”. The erythroid differentiation entry in test [2] is recorded as “without apparent effects”.

The values are drawn from US20190062736A1, “IN SITU AND IN VIVO ANALYSIS OF CHROMATIN INTERACTIONS BY BIOTINYLATED DCAS9 PROTEIN” (BOARD OF REGENTS, THE UNIVERSITY OF TEXAS SYSTEM, priority 2017, published 2019).
